Measured values published in patent US20050267166A1, “Continuous dosing regimen” (priority 2004, published 2005).

Legend:
[1] = tolerability of continuous 21 day once per day dosing in xenograft mice; assay type: in vivo, nude mice; details: 50 mg/kg/day
H-111 gastric cancer = assay: human tumor xenograft in nude mice, H-111; assay type: in vivo; details: Q1D × 19, 80 mg/kg/day
SC-2 gastric cancer = assay: human tumor xenograft in nude mice, SC-2; assay type: in vivo; details: Q1D × 19, 120 mg/kg/day
[2] = test system: MDA-MB-468 breast carcinoma; assay: MDA-MB-468 breast flank xenograft model (staged); assay type: in vivo, human
Experimental: (§1) Following inoculation of tumor cells, tumors were passaged three times in mice before using the fragments to generate single cell suspensions. Multiple animals were used as donors. Single cell suspensions were generated by homogenizing the minced tumor tissue in RPMI 1640 media. Cell suspensions were washed three times to remove debris and other foreign materials. Viable cells were counted by trypan blue exclusion technique using a hemocytometer. Mice were injected subcutaneously with 0.5 mL of the cell suspension containing 1×10^6 cells.
For determination of the efficacy of N-(2-((4-hydroxyphenyl)amino)pyrid-3-yl)-4-methoxybenzenesulfonamide in the MDA-MB-468 Breast Flank Xenograft model, tumor cells derived from serially passaged tumor fragments were inoculated subcutaneously in female nude mice on day 0. On day 10, mice bearing established tumors were size matched and grouped at about 231 mm^3.

LC-6 lung cancer = assay: human tumor xenograft in nude mice, LC-6; assay type: in vivo; details: Q5D × 5, 450 mg/kg/day
H-31 breast cancer = assay: human tumor xenograft in nude mice, H-31; assay type: in vivo; details: Q1D × 19, 80 mg/kg/day
H-143 colorectal cancer = assay: human tumor xenograft in nude mice, H-143; assay type: in vivo; details: Q5D × 5, 300 mg/kg/day
[3] = test system: NCI-H460 human non-small cell lung carcinoma; assay: NCI-H460 xenograft model; assay type: in vivo
Excerpt: NCI-H460 is a human non-small cell lung carcinoma derived cell line. It is MDR negative, has wild type p53, and contains an oncogenic K-ras mutation.

LC-376 lung cancer = assay: human tumor xenograft in nude mice, LC-376; assay type: in vivo; details: Q5D × 5, 300 mg/kg/day
[4] = MTD and safety in the 7-day and 21-day QD regimens in patients; assay type: in vivo
Experimental: In the 7-day QD regimen, the 250 mg QD dose has been determined to be the MTD, as dose limiting toxicities of peripheral neuropathy/ileus were reported in 2 of 6 subjects at the 300 mg QD dose.
The tumor types studied were colorectal (23), sarcoma (5), mesothelioma (3), salivary gland (2), endometrial (2), unknown (2), hepatoma (1), melanoma (1), renal cell (1), lung (1), ovary (1), and granulosa cell (1). […] Doses were escalated by 50 mg/day (25 mg twice per day). Three patients were initially treated at each dose level. […] If additional patients experienced dose-limiting toxicity, on occasion the dose level was expanded to nine patients to further assess tolerability. Response assessment was performed every two cycles.

[5] = test system: M5076 transplantable murine reticulum cell sarcoma
Calu-6 lung carcinoma = assay: Calu-6 NSCL flank xenograft model (staged); assay type: in vivo, human
Experimental: as §1
On day 10, mice bearing established tumors were size matched and grouped at about 233 mm^3.

[6] = 150 mg/kg orally once a day for 5 days
[7] = oral 75 mg/kg/d QD, d 10-14, 20-24

## COc1ccc(S(=O)(=O)Nc2cccnc2Nc2ccc(O)cc2)cc1 [ABT-751, N-(2-((4-hydroxyphenyl)amino)pyrid-3-yl)-4-methoxybenzenesulfonamide]
[1]
  adverse side effects: essentially without adverse side effects
H-111 gastric cancer
  T/C (%): 36%
SC-2 gastric cancer
  T/C (%): 28%
[2]; 100 and 75 mg/kg/day (5 days on/5 days off)×2, 50 mg/kg/day daily
  antitumor activity as single agent: dose-dependent antitumor activity
[2]; in combination with docetaxel at 33.3 mg/kg/day
  response in combination with docetaxel: greater than additive responses
LC-6 lung cancer
  T/C (%): 31%
H-31 breast cancer
  T/C (%): 13%
H-143 colorectal cancer
  T/C (%): 17%
[3]; day 13
  T/C, mean tumor volume: 58%
[3]; in vivo
  ILS (delay in tumor growth): 32%
[3]; in words
  efficacy in the NCI-H460 xenograft model: good efficacy
LC-376 lung cancer
  T/C (%): 18%
[4]; 7-day QD regimen
  MTD: 250 mg
[4]; QD regimen given for 21 days
  MTD: 200 mg
[4]; human, in vivo
  dose limiting toxicities of fatigue, anorexia and suspect small bowel obstruction, subjects affected: ⅔
  myelosuppression, renal or hepatic toxicity: no significant
[4]; human, in vivo, 7 days
  dose limiting toxicities of peripheral neuropathy/ileus, subjects affected: 2 of 6
[5]; [6]
  ILS (percent increase in life span): 42%
  T/C (tumor mass of test group divided by tumor mass of control group): 13%
[5]; in words
  antitumor activity in the M5076 model: significant antitumor activity
Calu-6 lung carcinoma; 100 and 75 mg/kg/day, (5 day on/5 day off)×2
  antitumor activity as single agent: significant antitumor activity
Calu-6 lung carcinoma; in combination with cisplatin
  response in combination with cisplatin: greater than additive responses
Calu-6 lung carcinoma; oral 50 mg/kg/d QD, d 1-21
  % T/C: 54%
Calu-6 lung carcinoma; [7]
  % ILS: 58%
  % T/C: 50%
Calu-6 lung carcinoma; oral 100 mg/kg/d QD, d 10-14, 20-24
  % T/C: 37%
